Consider 12 molecules from patent publication US8871762B2, “Plant disease controlling composition and method for controlling plant disease” (Sumitomo Chemical Company, Limited, priority 2010, dated 2014).

The test system of this assay is gray mold fungus (Botrytis cinerea). The assay is described as follows: Cucumber leaf disk preventive test against gray mold fungus. The class given is in vivo. As to conditions: for pest or weed control at 0.5 ppm / pest or weed control at 5 ppm: Botrytis cinerea, foliar, 96 h, read-out: preventive value (%). On the procedure: True leaf of cucumber is punched out with cork borer to 13 mm in diameter to prepare a leaf disk. In 24 well microwell plate that is dispensed with 1 ml 0.8% water agar, the leaf disk is placed such that the upper side of the leaf is in an upward direction. Thereto is added 20 micro liter a testing solution prepared by mixing a dimethyl sulfoxide solution of the present compound (racemate) and a dimethyl sulfoxide solution of isopyrazam, boscalid or penthiopyrad to a predetermined concentration to treat the leaf disk.
After confirming that the testing medical solution is dried, conidium of gray mold fungus (Botrytis cinerea) is suspended into potato dextrose broth (DIFCO) in a density of about 10^5 conidium/mL and is then subjected to a spray inoculation. After leaving to stand the leaf disk in a growth chamber set up at 15° C. for four days, an onset area on the leaf is measured and then calculated an onset area rate (hereinafter, referred to as an onset area rate of treated group).
The same operation is carried out with 20 micro liter water instead of 20 micro liter a testing medicine solution to calculate an onset area rate (hereinafter, referred to an onset area rate of non-treated group).
A preventive value is calculated from the above onset area rate of treated group and the onset area rate of non-treated group by the following equation: Preventive value(%)=100×(A−B)/A
A: an onset area rate of treated group
B: an onset area rate of non-treated group […]
For comparison, the same operations as described in Test Example 1 are carried out with the exception that the testing medicine solution is substituted with a predetermined concentration of each dimethyl sulfoxide solution of isopyrazam, boscalid or penthiopyrad, so as to calculate respective preventive values.

The mark [1] stands for this setting: carboxamide compound alone, 0.5 ppm, cucumber leaf disk, 15° C., four days.
[2] abbreviates: carboxamide compound alone, 5.0 ppm, cucumber leaf disk, 15° C., four days.

Like-named read-outs stand apart in the source and are kept apart here.

For `O=C(Nc1ccccc1-c1ccc(Cl)cc1)c1cccnc1Cl` [boscalid], the pest or weed control at 0.5 ppm under setting [1] was 49%. The pest or weed control at 5 ppm under setting [2] stood at 56%.
With `C[C@@H](NC(=O)C(C#N)C(C)(C)C)c1ccc(Cl)cc1Cl` (stereo partly drawn) [diclocymet], the pest or weed control at 0.5 ppm worked out at 10% and the pest or weed control at 5 ppm stood at 15%.
On to `CC(C)C1C2CCC1c1c(NC(=O)c3cn(C)nc3C(F)F)cccc12` (stereo not drawn) [isopyrazam], for which the “preventive value (%)” value runs as follows: under setting [1], 20%; under setting [2], 40%.
For `O=C(Nc1ccccc1)N(Cc1ccc(Cl)cc1)C1CCCC1` [pencycuron], the pest or weed control at 0.5 ppm under setting [1] came out at 10%. The pest or weed control at 5 ppm under setting [2] came out at 15%.
Turning to `COC(=O)[C@@H](C)N(C(=O)Cc1ccccc1)c1c(C)cccc1C` [benalaxyl-M], the “preventive value (%)” value under setting [1] amounted to 10% and the “preventive value (%)” value under setting [2] is given as 15%.
In the same order, the values of `Cc1nn(C)c(Cl)c1C(=O)Nc1cccc2c1C(C)OC2(C)C` (stereo not drawn) [furametpyr] are 15% and 20%.
In the same order, the values of `N#Cc1ccccc1NC(=O)c1snc(Cl)c1Cl` [isotianil] are 10% and 25%.
In the case of `O=C(NCCc1ncc(C(F)(F)F)cc1Cl)c1ccccc1C(F)(F)F` [fluopyram], under setting [1], the pest or weed control at 0.5 ppm was 35%. Moreover, the pest or weed control at 5 ppm under setting [2] stood at 45%.
In the same order, the values of `CC1(C(=O)Nc2ccc(O)c(Cl)c2Cl)CCCCC1` [fenhexamid] are 20% and 57%.
On to `COCC(=O)N(c1c(C)cccc1C)N1CCOC1=O` [oxadixyl], for which the pest or weed control at 0.5 ppm came out at 10% and the pest or weed control at 5 ppm was found to be 15%.
Turning to `CC(C)CC(C)c1sccc1NC(=O)c1cn(C)nc1C(F)(F)F` (stereo not drawn) [penthiopyrad], the pest or weed control at 0.5 ppm under setting [1] was 39%. Besides, the pest or weed control at 5 ppm under setting [2] stood at 45%.
In the same order, the values of `COc1ccc(C(=CC(=O)N2CCOCC2)c2ccc(Cl)cc2)cc1OC` [dimethomorph] are 10% and 15%.
